Experimental data as given in ChEMBL document CHEMBL1201862, “PubChem BioAssay data set” (2004).
Active and inactive are the calls of the source.

Columns and labels:
Type in all cases: functional
[1] = molecular target: Prothrombin (Homo sapiens, UniProt P00734); experiment: Thrombin 1536 HTS Dose Response Confirmation. [Related pubchem assays: 1046 (Thrombin 1536 HTS; hits were confirmed in this assay)]
[2] = molecular target: T1, Corticotropin-releasing factor receptor 2/Corticotropin-releasing factor-binding protein (Homo sapiens, UniProt P24387+Q13324); experiment: Dose Response confirmation of uHTS hits for small molecule antagonists of the CRF-binding protein and CRF-R2 receptor complex.; settings: read-out: IC50_Mean
T1 sequence (Q13324 whole entry): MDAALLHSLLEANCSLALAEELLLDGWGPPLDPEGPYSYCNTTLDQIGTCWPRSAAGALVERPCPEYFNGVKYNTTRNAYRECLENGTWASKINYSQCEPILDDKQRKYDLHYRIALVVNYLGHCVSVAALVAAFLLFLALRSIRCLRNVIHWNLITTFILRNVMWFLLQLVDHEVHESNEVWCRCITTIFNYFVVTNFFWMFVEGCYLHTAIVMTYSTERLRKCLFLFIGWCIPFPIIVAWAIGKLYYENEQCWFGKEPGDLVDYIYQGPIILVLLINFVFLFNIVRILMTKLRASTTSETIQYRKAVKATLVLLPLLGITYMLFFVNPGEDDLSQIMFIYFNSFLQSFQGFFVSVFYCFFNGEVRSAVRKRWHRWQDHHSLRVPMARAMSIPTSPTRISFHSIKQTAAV
T1 sequence (P24387 whole entry): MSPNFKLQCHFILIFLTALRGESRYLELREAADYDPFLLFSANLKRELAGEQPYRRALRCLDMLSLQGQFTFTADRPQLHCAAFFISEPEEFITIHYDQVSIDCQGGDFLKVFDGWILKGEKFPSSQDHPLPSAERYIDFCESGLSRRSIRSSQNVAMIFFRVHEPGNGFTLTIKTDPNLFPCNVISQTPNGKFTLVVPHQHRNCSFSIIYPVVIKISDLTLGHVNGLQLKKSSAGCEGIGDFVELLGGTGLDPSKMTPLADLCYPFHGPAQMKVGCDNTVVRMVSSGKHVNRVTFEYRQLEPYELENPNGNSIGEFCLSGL

[3] = molecular target: T2, Protein RecA (Mycobacterium tuberculosis, UniProt P9WHJ3); experiment: Fluorescence Cell-Free Homogeneous Dose Retest to Identify Inhibitors of RecA-Intein Splicing Activity. [Related pubchem assays (depositor defined):AID2097, AID2223, AID489010, AID492950]
T2 sequence (P9WHJ3 whole entry): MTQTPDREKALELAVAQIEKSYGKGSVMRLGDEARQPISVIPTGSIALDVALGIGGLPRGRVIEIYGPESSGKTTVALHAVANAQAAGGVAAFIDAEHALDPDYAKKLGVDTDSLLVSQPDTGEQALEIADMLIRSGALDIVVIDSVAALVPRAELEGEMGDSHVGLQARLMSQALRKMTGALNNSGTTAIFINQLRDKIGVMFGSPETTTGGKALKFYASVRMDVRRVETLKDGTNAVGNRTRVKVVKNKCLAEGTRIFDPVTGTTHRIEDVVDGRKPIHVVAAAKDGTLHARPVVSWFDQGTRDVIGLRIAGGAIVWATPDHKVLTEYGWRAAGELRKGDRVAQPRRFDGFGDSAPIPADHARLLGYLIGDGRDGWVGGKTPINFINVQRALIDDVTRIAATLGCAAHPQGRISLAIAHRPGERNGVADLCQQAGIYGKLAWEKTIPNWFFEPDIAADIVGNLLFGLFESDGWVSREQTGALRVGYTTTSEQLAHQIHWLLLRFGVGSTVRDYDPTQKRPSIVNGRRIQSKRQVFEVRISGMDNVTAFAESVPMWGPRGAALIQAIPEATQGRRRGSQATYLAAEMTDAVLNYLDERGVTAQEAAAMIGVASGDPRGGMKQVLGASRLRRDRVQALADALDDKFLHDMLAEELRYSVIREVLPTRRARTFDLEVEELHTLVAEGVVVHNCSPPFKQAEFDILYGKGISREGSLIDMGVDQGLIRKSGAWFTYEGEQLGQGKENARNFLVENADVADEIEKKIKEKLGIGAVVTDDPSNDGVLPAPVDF

[4] = molecular target: Ribosomal protein S6 kinase alpha-3 (Homo sapiens, UniProt P51812);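 note: measured within a kinome-wide profiling panel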
[5] = molecular target: Serine/threonine-protein kinase Chk2 (Homo sapiens, UniProt O96017);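 note: CHEK2 entry within a kinome-wide screening panel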
[6] = molecular target: Serine/threonine-protein kinase pim-1 (Homo sapiens, UniProt P11309)
[7] = molecular target: Cell division cycle 7-related protein kinase (Homo sapiens, UniProt O00311);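 note: value obtained from a kinome-wide kinase panel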
[8] = molecular target: Mast/stem cell growth factor receptor Kit (Homo sapiens, UniProt P10721);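 note: KIT entry within a kinase panel assay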
[9] = molecular target: MAP/microtubule affinity-regulating kinase 3 (Homo sapiens, UniProt P27448);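 note: MARK3 affinity measured as one member of a kinome panel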
[10] = molecular target: High affinity nerve growth factor receptor (Homo sapiens, UniProt P04629);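 note: NTRK1 tested as one member of a kinome-wide profiling panel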
[11] = molecular target: Mitogen-activated protein kinase 13 (Homo sapiens, UniProt O15264)
[12] = molecular target: Tyrosine-protein kinase ABL1 (Homo sapiens, UniProt P00519)
[13] = molecular target: Misshapen-like kinase 1 (Homo sapiens, UniProt Q8N4C8);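 note: kinome panel screen with MINK as the panel member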
[14] = molecular target: Aurora kinase B (Homo sapiens, UniProt Q96GD4)
[15] = molecular target: Vascular endothelial growth factor receptor 1 (Homo sapiens, UniProt P17948);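 note: measured within a kinome-wide profiling panel, FLT1 as the panel member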
[16] = molecular target: STE20-like serine/threonine-protein kinase (Homo sapiens, UniProt Q9H2G2)
[17] = molecular target: Fibroblast growth factor receptor 3 (Homo sapiens, UniProt P22607)
[18] = molecular target: Glycogen synthase kinase-3 beta (Homo sapiens, UniProt P49841);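 note: value comes from a broad kinome profiling panel, with GSK3B as the panel member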
[19] = molecular target: Receptor tyrosine-protein kinase erbB-4 (Homo sapiens, UniProt Q15303);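 note: ERBB4 member of a kinome-wide kinase profiling panel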
[20] = molecular target: Dual specificity protein kinase CLK4 (Homo sapiens, UniProt Q9HAZ1)
[21] = molecular target: Polyadenylate-binding protein 1 (Homo sapiens, UniProt P11940); experiment: PABP1 MLLE–PAM2 interaction inhibitors, dose response, miRNA deadenylation inhibitor project, biochemical, fluorescence polarization, Cy5-PAM2 peptide, secondary (AID 602260); settings: read-out: IC50_Mean
[22] = molecular target: Mitogen-activated protein kinase kinase kinase kinase 4 (Homo sapiens, UniProt O95819)
[23] = molecular target: Tyrosine-protein kinase FRK (Homo sapiens, UniProt P42685);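 note: FRK tested as one member of a kinome panel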
Chain of Tyrosine-protein kinase FRK (P42685 whole entry): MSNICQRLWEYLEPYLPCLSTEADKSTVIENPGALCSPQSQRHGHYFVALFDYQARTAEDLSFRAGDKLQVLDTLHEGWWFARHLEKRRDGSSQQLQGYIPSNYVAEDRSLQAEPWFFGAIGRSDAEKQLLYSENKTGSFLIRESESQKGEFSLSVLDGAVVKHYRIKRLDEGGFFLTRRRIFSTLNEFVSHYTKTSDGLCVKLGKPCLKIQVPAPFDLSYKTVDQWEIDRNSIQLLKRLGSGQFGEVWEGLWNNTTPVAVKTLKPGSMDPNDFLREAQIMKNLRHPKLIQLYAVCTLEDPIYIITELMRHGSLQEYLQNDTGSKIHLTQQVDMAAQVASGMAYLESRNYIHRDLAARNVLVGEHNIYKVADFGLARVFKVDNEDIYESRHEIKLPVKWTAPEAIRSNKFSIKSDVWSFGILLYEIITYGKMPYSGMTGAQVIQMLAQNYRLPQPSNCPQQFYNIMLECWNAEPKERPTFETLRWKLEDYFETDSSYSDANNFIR

Chain of Misshapen-like kinase 1 (Q8N4C8 whole entry): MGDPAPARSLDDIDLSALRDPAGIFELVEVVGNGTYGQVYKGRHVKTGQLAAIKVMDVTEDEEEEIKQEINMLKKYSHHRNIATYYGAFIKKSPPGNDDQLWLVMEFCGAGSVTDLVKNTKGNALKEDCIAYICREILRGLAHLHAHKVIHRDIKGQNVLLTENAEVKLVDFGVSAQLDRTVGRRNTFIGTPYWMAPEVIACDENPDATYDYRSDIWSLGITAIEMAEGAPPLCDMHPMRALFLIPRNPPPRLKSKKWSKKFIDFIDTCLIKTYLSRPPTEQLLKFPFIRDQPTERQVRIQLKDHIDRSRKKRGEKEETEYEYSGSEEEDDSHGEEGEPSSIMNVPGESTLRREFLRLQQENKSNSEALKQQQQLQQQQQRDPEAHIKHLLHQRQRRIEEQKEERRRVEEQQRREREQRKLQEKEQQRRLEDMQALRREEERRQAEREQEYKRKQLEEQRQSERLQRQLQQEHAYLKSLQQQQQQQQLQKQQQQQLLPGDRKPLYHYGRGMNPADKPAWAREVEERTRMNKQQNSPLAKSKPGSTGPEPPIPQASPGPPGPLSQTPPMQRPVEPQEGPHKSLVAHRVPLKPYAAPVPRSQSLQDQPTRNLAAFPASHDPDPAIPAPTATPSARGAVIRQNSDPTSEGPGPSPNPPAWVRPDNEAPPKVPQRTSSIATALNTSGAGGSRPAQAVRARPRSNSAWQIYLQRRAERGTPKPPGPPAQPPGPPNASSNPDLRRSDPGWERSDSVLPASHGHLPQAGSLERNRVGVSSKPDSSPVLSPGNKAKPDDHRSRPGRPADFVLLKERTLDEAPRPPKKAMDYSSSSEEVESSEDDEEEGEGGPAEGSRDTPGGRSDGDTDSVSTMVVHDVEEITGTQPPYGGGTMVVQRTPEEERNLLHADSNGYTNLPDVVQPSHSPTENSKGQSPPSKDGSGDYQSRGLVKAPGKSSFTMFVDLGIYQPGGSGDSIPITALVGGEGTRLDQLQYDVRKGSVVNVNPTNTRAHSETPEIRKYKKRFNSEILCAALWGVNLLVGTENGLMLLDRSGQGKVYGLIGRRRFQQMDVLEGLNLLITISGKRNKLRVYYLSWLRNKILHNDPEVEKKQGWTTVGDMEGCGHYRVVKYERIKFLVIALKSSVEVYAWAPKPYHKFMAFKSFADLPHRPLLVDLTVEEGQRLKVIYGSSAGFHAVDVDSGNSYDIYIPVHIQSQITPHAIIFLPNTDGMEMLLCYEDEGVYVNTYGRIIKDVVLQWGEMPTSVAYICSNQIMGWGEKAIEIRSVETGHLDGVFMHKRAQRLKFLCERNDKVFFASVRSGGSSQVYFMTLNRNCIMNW
Chain of Dual specificity protein kinase CLK4 (Q9HAZ1 whole entry): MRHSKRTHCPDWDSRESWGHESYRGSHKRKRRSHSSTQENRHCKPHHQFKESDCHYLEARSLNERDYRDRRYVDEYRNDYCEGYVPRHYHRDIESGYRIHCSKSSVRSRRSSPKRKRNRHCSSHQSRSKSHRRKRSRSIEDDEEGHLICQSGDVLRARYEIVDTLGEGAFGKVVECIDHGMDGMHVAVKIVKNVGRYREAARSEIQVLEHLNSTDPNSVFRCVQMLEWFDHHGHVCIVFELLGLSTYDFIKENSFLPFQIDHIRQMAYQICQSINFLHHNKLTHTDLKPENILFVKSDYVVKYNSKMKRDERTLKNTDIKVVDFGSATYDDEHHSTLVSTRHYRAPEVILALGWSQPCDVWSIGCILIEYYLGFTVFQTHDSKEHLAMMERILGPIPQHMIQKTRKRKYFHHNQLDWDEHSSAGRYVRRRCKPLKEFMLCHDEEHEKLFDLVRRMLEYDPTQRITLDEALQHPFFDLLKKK
Chain of Ribosomal protein S6 kinase alpha-3 (P51812 whole entry): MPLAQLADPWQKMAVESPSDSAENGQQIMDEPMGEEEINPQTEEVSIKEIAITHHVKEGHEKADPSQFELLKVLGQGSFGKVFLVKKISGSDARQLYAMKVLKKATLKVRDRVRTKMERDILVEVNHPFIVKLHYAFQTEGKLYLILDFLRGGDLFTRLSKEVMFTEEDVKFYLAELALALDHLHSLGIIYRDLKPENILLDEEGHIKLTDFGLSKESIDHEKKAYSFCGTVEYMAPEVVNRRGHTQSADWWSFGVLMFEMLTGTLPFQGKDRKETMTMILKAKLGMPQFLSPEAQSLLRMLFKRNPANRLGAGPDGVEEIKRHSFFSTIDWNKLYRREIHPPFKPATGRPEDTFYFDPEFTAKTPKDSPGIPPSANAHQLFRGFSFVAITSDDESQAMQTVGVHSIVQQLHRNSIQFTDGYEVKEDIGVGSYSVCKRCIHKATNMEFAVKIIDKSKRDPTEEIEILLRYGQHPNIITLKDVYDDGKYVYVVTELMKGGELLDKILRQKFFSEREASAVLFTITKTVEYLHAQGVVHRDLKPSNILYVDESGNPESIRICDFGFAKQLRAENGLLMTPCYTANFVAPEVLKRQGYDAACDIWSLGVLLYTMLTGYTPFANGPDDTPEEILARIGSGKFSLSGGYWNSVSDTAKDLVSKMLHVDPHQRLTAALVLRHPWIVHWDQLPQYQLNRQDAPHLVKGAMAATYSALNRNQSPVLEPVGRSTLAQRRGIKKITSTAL
Chain of Aurora kinase B (Q96GD4 whole entry): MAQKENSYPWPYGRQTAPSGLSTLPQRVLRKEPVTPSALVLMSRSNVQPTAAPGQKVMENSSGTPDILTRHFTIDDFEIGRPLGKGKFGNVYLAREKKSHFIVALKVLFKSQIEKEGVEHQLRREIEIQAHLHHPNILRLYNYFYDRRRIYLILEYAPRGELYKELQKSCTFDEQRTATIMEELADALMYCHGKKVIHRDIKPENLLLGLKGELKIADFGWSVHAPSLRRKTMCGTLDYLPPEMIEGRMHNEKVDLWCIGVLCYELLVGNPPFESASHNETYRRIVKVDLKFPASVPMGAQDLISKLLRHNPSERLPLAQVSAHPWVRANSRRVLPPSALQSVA
Chain of Serine/threonine-protein kinase pim-1 (P11309 whole entry): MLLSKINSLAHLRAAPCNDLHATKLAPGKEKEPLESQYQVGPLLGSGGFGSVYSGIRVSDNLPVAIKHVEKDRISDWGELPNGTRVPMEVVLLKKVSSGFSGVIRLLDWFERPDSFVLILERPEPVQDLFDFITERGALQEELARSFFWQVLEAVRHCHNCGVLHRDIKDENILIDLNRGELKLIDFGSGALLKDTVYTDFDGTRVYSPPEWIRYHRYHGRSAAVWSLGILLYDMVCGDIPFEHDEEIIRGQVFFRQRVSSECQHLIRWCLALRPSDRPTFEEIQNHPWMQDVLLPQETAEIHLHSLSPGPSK
Chain of Polyadenylate-binding protein 1 (P11940 whole entry): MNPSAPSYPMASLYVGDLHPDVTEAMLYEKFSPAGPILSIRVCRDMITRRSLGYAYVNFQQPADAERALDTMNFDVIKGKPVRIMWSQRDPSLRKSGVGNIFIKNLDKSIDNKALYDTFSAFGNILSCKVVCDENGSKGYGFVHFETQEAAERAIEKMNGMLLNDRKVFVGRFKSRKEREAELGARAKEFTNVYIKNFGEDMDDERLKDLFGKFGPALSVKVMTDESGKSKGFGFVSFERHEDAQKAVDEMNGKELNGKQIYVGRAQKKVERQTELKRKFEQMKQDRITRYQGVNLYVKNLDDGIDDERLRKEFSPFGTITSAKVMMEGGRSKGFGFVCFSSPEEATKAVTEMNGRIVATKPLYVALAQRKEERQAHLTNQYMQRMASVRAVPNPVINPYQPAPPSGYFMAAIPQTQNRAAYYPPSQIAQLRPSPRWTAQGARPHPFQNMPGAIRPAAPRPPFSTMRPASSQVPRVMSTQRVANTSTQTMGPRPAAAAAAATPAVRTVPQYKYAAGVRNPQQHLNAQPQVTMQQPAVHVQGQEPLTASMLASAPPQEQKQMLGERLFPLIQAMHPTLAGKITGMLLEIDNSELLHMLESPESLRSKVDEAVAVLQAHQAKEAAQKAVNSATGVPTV
Chain of Mitogen-activated protein kinase 13 (O15264 whole entry): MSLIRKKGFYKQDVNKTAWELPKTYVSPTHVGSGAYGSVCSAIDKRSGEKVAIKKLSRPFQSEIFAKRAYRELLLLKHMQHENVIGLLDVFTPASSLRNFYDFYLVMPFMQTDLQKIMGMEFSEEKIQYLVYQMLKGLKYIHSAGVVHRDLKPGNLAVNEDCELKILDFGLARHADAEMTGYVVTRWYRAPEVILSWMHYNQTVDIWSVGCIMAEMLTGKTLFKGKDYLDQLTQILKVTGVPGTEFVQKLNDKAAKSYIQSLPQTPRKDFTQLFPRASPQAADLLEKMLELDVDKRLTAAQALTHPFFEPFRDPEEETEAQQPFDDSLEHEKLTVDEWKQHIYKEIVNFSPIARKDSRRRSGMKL

O=C(COC(=O)c1ccc([N+](=O)[O-])s1)Nc1cccc(S(=O)(=O)/N=C2/CCCCCN2)c1
IC50 [1]: > 50000 nM (not active) | IC50 [2]: > 47100 nM (inactive)

COc1ccc(C(C[N+](=O)[O-])c2c(C)[nH]n(-c3ccccc3)c2=O)cc1 (stereo not drawn)
EC50 [3]: 3300 nM (active)

Oc1c2ccccc2c2c3c(cccc13)N=N2 [SP-600125]
Ki [4]: 398 nM (active) | Ki [5]: 501 nM (active) | Ki [6]: 501 nM (active) | Ki [7]: 1000 nM (active) | Ki [8]: 1260 nM (active) | Ki [9]: 3.98 nM (active) | Ki [10]: 1260 nM (active) | Ki [11]: > 7940 nM (inactive) | Ki [12]: > 631 nM (inactive) | Ki [13]: 200 nM (active) | Ki [14]: 10 nM (active) | Ki [15]: 200 nM (active) | Ki [16]: 3160 nM (active) | Ki [17]: 158 nM (active) | Ki [18]: 316 nM (active) | Ki [19]: 3980 nM (active) | Ki [20]: 63.1 nM (active) | IC50 [21]: > 66000 nM (inactive) | Ki [22]: 316 nM (active) | Ki [23]: 63.1 nM (active)
